Test results as given in patent US9732087B2, “Diamino-pyridine, pyrimidine, and pyridazine modulators of the histamine H4 receptor” (JANSSEN PHARMACEUTICA NV, priority 2008, dated 2017).
Where a name gives a salt, the structure may show the parent alone.

Molecular target: human H4 receptor (Homo sapiens (Human), UniProt Q9H3N8)
Experiment: Binding assay on recombinant human histamine H4 receptor ([3H]histamine competition, SK-N-MC cell membranes)
Settings: membranes harvested with 96 well Brandel system; [3H]histamine 10 nM; average of results; read-out: Brandel Ki
Protocol: Binding Assay on Recombinant Human Histamine H4Receptor
Cell pellets from SK-N-MC cells stably or transiently transfected with human H4 receptor (NCBI accession No. AF312230) were used for the binding assays. Cell pellets were homogenized in 50 mM Tris/5 mM EDTA buffer and supernatants from an 800 g spin were collected and recentrifuged at 30,000 g for 30 min. Pellets were rehomogenized in 50 mM Tris/5 mM EDTA buffer. […] Membranes were harvested by rapid filtration using the 96 well Brandel system (Table 1, Brandel) or a cell harvester (Table 1, Cell Harvester) using a Whatman GF/C filter or filter plates treated with 0.5% polyethylenimine (PEI), and washed 4 times with ice-cold 50 mM Tris/5 mM EDTA buffer. Filters were then dried, mixed with scintillant and radioactive counts were determined. […] Where activity is shown as greater than (>) a particular value, the value is the highest concentration tested.

Ki [nM] | SMILES
1 | CN[C@@H]1CCN(c2ccnc(N[C@H]3C[C@H]4C[C@@H]([C@@H]3C)C4(C)C)c2)C1 [Example 9, 4-[(3R)-3-(Methylamino)pyrrolidin-1-yl]-N-[(1S,2S,3S,5R)-2,6,6-trimethylbicyclo[3.1.1]hept-3-yl]pyridin-2-amine]
2 | CCCCNc1nccc(N2CC[C@@H](NC)C2)n1 [Example 73, Butyl-[4-(3R)-(3-methylamino-pyrrolidin-1-yl)-pyrimidin-2-yl]-amine]

SMILES | Ki [nM]
CC(C)CNc1nccc(N2CCNCC2)n1 [Example 65, Isobutyl-(4-piperazin-1-yl-pyrimidin-2-yl)-amine] | 46.3

Same assay, conditions: membranes harvested with cell harvester; [3H]histamine 10 nM; average of results; read-out: Cell Harvester Ki

Ki [nM] | SMILES
> 10000 | N[C@H]1CCN(c2ccnc(NCc3ccccn3)c2)C1 [Example 258, 4-[(3S)-3-Aminopyrrolidin-1-yl]-N-(pyridin-2-ylmethyl)pyridin-2-amine]
1730 | COc1ccc(CNc2nccc(N3CC[C@@H](N)C3)n2)cc1 [Example 185, 4-[(3R)-3-Aminopyrrolidin-1-yl]-N-(4-methoxybenzyl)pyrimidin-2-amine]
19.8 | CNC1CN(c2ccnc(N[C@H]3C[C@H]4CC[C@]3(C)C4(C)C)n2)C1 [Example 126, 4-[3-(Methylamino)azetidin-1-yl]-N-[(1R,2S,4R)-1,7,7-trimethylbicyclo[2.2.1]hept-2-yl]pyrimidin-2-amine]
> 10000 | C[C@@H](Nc1cc(N2CCNCC2)cnn1)c1ccccc1 [Example 349, N-[(1R)-1-Phenylethyl]-5-piperazin-1-ylpyridazin-3-amine]
0.86 | CN[C@@H]1CCN(c2ccnc(NC3C4CC5CC(C4)CC3C5)c2)C1 (stereo partly drawn) [Example 208, Adamantan-2-yl-[4-(3R)-(3-methylamino-pyrrolidin-1-yl)-pyridin-2-yl]-amine]
7220 | CC1(C)[C@H]2CC[C@H](CNc3cc(N4CC(N)C4)cnn3)[C@@H]1C2 [Example 306, 5-(3-Aminoazetidin-1-yl)-N-{[(1S,2S,5S)-6,6-dimethylbicyclo[3.1.1]hept-2-yl]methyl}pyridazin-3-amine]
155 | CSCCNc1nccc(N2CCNCC2)n1 [Example 124, N-[2-(Methylsulfanyl)ethyl]-4-piperazin-1-ylpyrimidin-2-amine]
143 | CN[C@H]1CCN(c2cnnc(N[C@H](C)C3CCCCC3)c2)C1 [Example 373, N-[(1R)-1-Cyclohexylethyl]-5-[(3S)-3-(methylamino)pyrrolidin-1-yl]pyridazin-3-amine]
1720 | CC(C)(CO)CNc1cc(N2CC[C@@H](N)C2)cnn1 [Example 350, 3-({5-[(3R)-3-Aminopyrrolidin-1-yl]pyridazin-3-yl}amino)-2,2-dimethylpropan-1-ol]
353 | CN[C@@H]1CCN(c2cnnc(NCc3ccccc3)c2)C1 [Example 397, N-Benzyl-5-[(3R)-3-(methylamino)pyrrolidin-1-yl]pyridazin-3-amine]
67.7 | CC(C)(O)CNc1nccc(N2CC[C@@H](N)C2)n1 [Example 27, 1-({4-[(3R)-3-Aminopyrrolidin-1-yl]pyrimidin-2-yl}amino)-2-methylpropan-2-ol]
284 | CN[C@@H]1CCN(c2cnnc(NCCCC(F)(F)F)c2)C1 [Example 386, 5-[(3R)-3-(Methylamino)pyrrolidin-1-yl]-N-(4,4,4-trifluorobutyl)pyridazin-3-amine]
1810 | CN[C@@H]1CCN(c2cnnc(NCCOC)c2)C1 [Example 393, N-(2-Methoxyethyl)-5-[(3R)-3-(methylamino)pyrrolidin-1-yl]pyridazin-3-amine]
536 | CC(C)(C)CNc1cc(N2CCCNCC2)cnn1 [Example 307, 5-(1,4-Diazepan-1-y1)-N-(2,2-dimethylpropyl)pyridazin-3-amine]
303 | CN1CCN(c2ccnc(NCC(C)(C)O)n2)CC1 [Example 120]
3.32 | N[C@@H]1CCN(c2ccnc(NCC3CC3)n2)C1 [Example 24]
347 | CN[C@@H]1CCN(c2cnnc(NCc3ccc(F)cc3)c2)C1 [Example 398, N-(4-Fluorobenzyl)-5-[(3R)-3-(methylamino)pyrrolidin-1-yl]pyridazin-3-amine]
2.7 | CC(C)CNc1nccc(N2CC[C@@H](N)C2)n1 [Example 23, 4-[(3R)-3-Aminopyrrolidin-1-yl]-N-(2-methylpropyl)pyrimidin-2-amine]
33.3 | CCCCNc1nccc(N2CC(N)C2)n1 [Example 84, [4-(3-Amino-azetidin-1-yl)-pyrimidin-2-yl]-butyl-amine]
34.1 | N[C@H]1CCN(c2ccnc(NC3CC4CCC3C4)n2)C1 (stereo partly drawn) [Example 146, 4-[(3S)-3-Aminopyrrolidin-1-yl]-N-bicyclo[2.2.1]hept-2-ylpyrimidin-2-amine]
619 | N[C@@H]1CCN(c2cnnc(NCC3CC3)c2)C1 [Example 369, 5-[(3R)-3-Aminopyrrolidin-1-yl]-N-(cyclopropylmethyl)pyridazin-3-amine]

Ki [nM] | SMILES
> 10000 | NC1CN(c2cnnc(NC3CC3)c2)C1 [Example 333, 5-(3-Aminoazetidin-1-yl)-N-cyclopropylpyridazin-3-amine]
702 | NC1CN(c2ccnc(N[C@@H]3CCOC3)n2)C1 [Example 93, 4-(3-Aminoazetidin-1-yl)-N-[(3R)-tetrahydrofuran-3-yl]pyrimidin-2-amine]
> 10000 | CN[C@H]1CCN(c2ccnc(NCC(C)(C)O)c2)C1 [Example 242, 2-Methyl-1-({4-[(3S)-3-(methylamino)pyrrolidin-1 yl]pyridin-2-yl}amino)propan-2-ol]
> 10000 | c1cc(N2CCNCC2)nc(NC[C@H]2CCCO2)n1 [Example 69, (R)-(4-Piperazin-1-yl-pyrimidin-2-yl)-(tetrahydro-furan-2-ylmethyl)-amine]
596 | CN[C@H]1CCN(c2cnnc(NCC(C)(C)CO)c2)C1 [Example 383, 2,2-Dimethyl-3-({5-[(3S)-3-(methylamino)pyrrolidin-1-yl]pyridazin-3-yl}amino)propan-1-ol]
342 | CN1CCN(c2ccnc(NCc3ccc(F)cc3)n2)CC1 [Example 58, N-(4-Fluorobenzyl)-4-(4-methylpiperazin-1-yl)pyrimidin-2-amine]
64.7 | CNC1CN(c2ccnc(NCC(C)(C)O)n2)C1 [Example 122]
66.8 | CN[C@@H]1CCN(c2cnnc(NCC3CC4CCC3C4)c2)C1 (stereo partly drawn) [Example 375, N-(Bicyclo[2.2.1]hept-2-ylmethyl)-5-[(3R)-3-(methylamino)pyrrolidin-1-yl]pyridazin-3-amine]
98.1 | CN(CCN)c1cnnc(NC2CC3CCC2C3)c1 (stereo not drawn) [Example 302, N^5-(2-Amino-ethyl)-N^3-bicyclo[2.2.1]hept-2yl-N^5-methylpyridazine-3,5-diamine]
8.4 | N[C@@H]1CCN(c2ccnc(NC3CCC3)n2)C1 [Example 28, 4-[(3R)-3-Aminopyrrolidin-1-yl]-N-cyclobutylpyrimidin-2-amine]
0.4 | CN[C@@H]1CCN(c2ccnc(N[C@H]3C[C@H]4C[C@@H]([C@@H]3C)C4(C)C)c2)C1 [Example 9, 4-[(3R)-3-(Methylamino)pyrrolidin-1-yl]-N-[(1S,2S,3S,5R)-2,6,6-trimethylbicyclo[3.1.1]hept-3-yl]pyridin-2-amine]
64 | N[C@H]1CCN(c2ccnc(NCC3CC3)n2)C1 [Example 109, 4-[(3S)-3-Aminopyrrolidin-1-yl]-N-(cyclopropylmethyl)pyrimidin-1-amine]
204 | N[C@@H]1CCN(c2ccnc(NCCCO)n2)C1 [Example 154, 3-({4-[(3R)-3-Aminopyrrolidin-1-yl]pyrimidin-2-yl}amino)propan-1-ol]
22.9 | CN1CCN(c2ccnc(NCC3CCCC3)n2)CC1 [Example 119, N-(Cyclopentylmethyl)-4-(4-methylpiperazin-1-yl)pyrimidin-2-amine]
0.7 | CCCCNc1nccc(N2CC[C@@H](NC)C2)n1 [Example 73, Butyl-[4-(3R)-(3-methylamino-pyrrolidin-1-yl)-pyrimidin-2-yl]-amine]
161 | N[C@@H]1CCN(c2cnnc(NCC3CCCC3)c2)C1 [Example 359, 5-[(3R)-3-Aminopyrrolidin-1-yl]-N-(cyclopentylmethyl)pyridazin-3-amine]
3.3 | CN[C@@H]1CCN(c2ccnc(NCC3CC3)n2)C1 [Example 77, Cyclopropylmethyl-[4-(3R)-(3-methylamino-pyrrolidin-1-yl)-pyrimidin-2-yl]-amine]
2570 | CNC1CN(c2cnnc(NCCCO)c2)C1 [Example 334, 3-({5-[3-(Methylamino)azetidin-1-yl]pyridazin-3-yl}amino)propan-1-ol]
1460 | CN[C@@H]1CCN(c2ccnc(N[C@H](C)C3CCCCC3)c2)C1 [Example 209, N-[(1R)-1-Cyclohexylethyl]-4-[(3R)-3-(methylamino)pyrrolidin-1-yl]pyridin-2-amine]
1640 | N[C@H]1CCN(c2ccnc(NCCc3ccccc3)c2)C1 [Example 276, 4-[(3S)-3-Aminopyrrolidin-1-yl]-N-(2-phenylethyl)pyridin-2-amine]
> 10000 | CN1CCN(c2cnnc(NCc3ccccc3)c2)CC1 [Example 410, N-Benzyl-5-(4-methylpiperazin-1-yl)pyridazin-3-amine]

SMILES | Ki [nM]
CCCNc1cc(N2CCNCC2)ccn1 [Example 17, 4-Piperazin-1-yl-N-propylpyridin-2-amine dihydrochloride] | 375
CC(C)CNc1nccc(N2C[C@H]3CCN[C@H]3C2)n1 [Example 138, 4-[(3aR,6aR)-Hexahydropyrrolo[3,4-b]pyrrol-5(1H)-yl]-N-(2-methylpropyl)pyrimidin-2-amine] | 23.8
CCCCNc1nccc(N2CCN(C)CC2)n1 [Example 47, N-Butyl-4-(4-methylpiperazin-1-yl)pyrimidin-2-amine] | 33.2
c1cc(N2CCNCC2)cc(NC2CCCC2)n1 [Example 16, N-Cyclopentyl-4-piperazin-1-ylpyridin-2-amine] | 48.2
CC(C)CNc1nccc(N2CCNCC2)n1 [Example 65, Isobutyl-(4-piperazin-1-yl-pyrimidin-2-yl)-amine] | 68.6
c1nnc(NC2CCCC2)cc1N1CCNCC1 [Example 354, N-Cyclopentyl-5-piperazin-1-ylpyridazin-3-amine] | 2130
